Measured values published in patent US20220143148A1, “COMPOSITIONS AND METHODS FOR MODULATING CGRP SIGNALING TO REGULATE INTESTINAL INNATE LYMPHOID CELLS” (The Broad Institute, Inc., priority 2019, published 2022).

Key:
KLRG1+ ILC2s [1] = experiment: In vitro proliferation assay (CellTrace Violet, flow cytometry); type: cell-based, mouse; settings: IL-25 plus α-CGRP, 60 hours; P=0.01, t-test
Description: (§1) Flow cytometry and cell sorting. Cells were washed and suspended in MACS buffer (pH 7.4; PBS plus 2% FCS and 2 mM EDTA). Nonspecific antibody binding was blocked with CD16/CD32 (2.4G2) antibody for 15 min on ice. Cells were then stained with antibody cocktails for 30 min at 4° C. Lineage-positive cells were excluded for analyzing ILCs by staining for CD3ε (145-2C11), CD5 (53-7.3), CD19 (6D5), CD11b (M1/70), CD8 (53-6.7), CD11c (N418), Gr-1 (RB6-8C5), TCRγδ (eBioGL3 (GL-3, GL3)) and TCRβ (H57-597). To analyze mast cells, lineage-positive cells were excluded by staining for CD3ε, CD5, CD19, CD11c and SiglecF (E50-2440). For surface staining, antibodies for KLRG1 (2F1), CD45 (30-F11), CD127 (A7R34), CCR6 (29-2L17), NKp46 (29A1.4), CD90.2 (53-2.1), FcεRI (Mar-1), IgD (11-26c.2a) and ST2 (DJ8) were used. For intracellular staining, cells were fixed and permeabilized using the Foxp3 transcription factor staining buffer set, followed by staining with anti-GATA-3 (TWAJ) or anti-RORγt (B2D) antibodies. Dead cells were excluded with 7-AAD or Fixable Viability Dye eFluor 780. Flow cytometry was performed on Cytoflex (Beckman Coulter) and analyzed with FlowJo software. Sorting was performed with the SH800S Cell Sorter (Sony Biotechnology).
ILC2 culture. […]

KLRG1+ ILC2s [2] = experiment: IL-25-induced in vivo ILC2 activation model; design: species or system mouse
Text: Intraperitoneal administration of α-CGRP impaired IL-25-induced expansion of KLRG1^+ ILC2s (FIGS. 5B and 12A), consistent with the in vitro results. Recent work has shown that intestinal KLRG1^+ ILC2s can migrate to mesenteric lymph nodes (mLNs) and other tissues during inflammation via sphingosine 1-phosphate (S1P)-mediated chemotaxis (Huang et al., 2018). To determine whether α-CGRP primarily impacts intestinal or mLN ILC2s, Applicants relied on the fact that intestinal GATA3^+ ILC2s are generally phenotypically KLRG1^+ST2^− (data not shown), whereas mLN ILC2s are mainly ST2^+ at steady state (FIG. 5C). IL-25 administration increased the frequency of both KLRG1^+ST2^− inflammatory ILC2s and ST2^+ ILC2s in mLNs (FIGS. 5C-E and 12B). […] Thus, α-CGRP preferentially regulates the response of intestinal KLRG1^+ST2^− ILC2s. […] Taken together, α-CGRP antagonized expansion of intestinal KLRG1^+ ILC2s in two different type 2 inflammatory models.
To activate ILC2s in vivo, 200 ng of IL-25 was intraperitoneally injected into 7-10 weeks old mice daily for two days. 1 μg α-CGRP was injected together as noted.
as §1
Immunofluorescence staining and imaging. The small intestines were fixed in 2% PFA, embedded in O.C.T. Compound and sliced into 10 μm by frozen section. The slides were blocked with 0.1% Triton X-100, 2% FCS and donkey serum. […] The images were analyzed with ImageJ.

α-CGRP: neuropeptide alpha-calcitonin gene-related peptide, encoded by exon 5 of Calca; administered as peptide
IL-25-induced cell division (KLRG1+ ILC2s [1]): significantly suppressed | frequency of KLRG1+ST2− ILC2s in mLNs (KLRG1+ ILC2s [2]; IL-25 co-administered with α-CGRP): reduced | IL-25-induced expansion of KLRG1+ ILC2s (KLRG1+ ILC2s [2]; intraperitoneal α-CGRP with IL-25, small intestine, IF): impaired
